Results on 13 molecules are retold here after patent US20250263440A1, “CD38-BINDING AGENTS AND USES THEREOF” (PeptiDream Inc., priority 2019, published 2025).

SMILES strings stand for the structures. Starred links: 1 amine or outer side, 2 acyl side, 3 side chain; linkers in the order of their positions; H or OH if unused. Positions of bridges follow the written chain, without caps; N, C: chain ends. Non-standard residues stand in square brackets, D forms with d. Residues, ends and D or L forms follow the SMILES beside them. *: point of attachment. Trp(6-aza) = N[C@@H](Cc1c[nH]c2cnccc12)C(=O)O; Bip = N[C@@H](Cc1ccc(-c2ccccc2)cc1)C(=O)O; Nle(6-Ph) = N[C@@H](CCCCc1ccccc1)C(=O)O; Met(O2) = CS(=O)(=O)CC[C@H](N)C(=O)O; Arg(Me) = CNC(=N)NCCC[C@H](N)C(=O)O; X4 = CCCCCCC[C@H](N[*:1])C(=O)[*:2]; hhPhe = N[C@@H](CCCc1ccccc1)C(=O)O; Cit = NC(=O)NCCC[C@H](N)C(=O)O; Ahp(2) = CCCCC[C@H](N)C(=O)O; X1 = COCCOCCOCCOCCC(=O)*

This assay concerns the target His-tagged CD38 (Homo sapiens, UniProt P28907). The assay can be described thus: SPR assay (Biacore S200, Sensor Chip NTA, single-cycle kinetics) of SEQ ID NO.1 variants against His-tagged CD38. The assay is classed as binding. The conditions noted are these: for Kd: SPR Biacore S200, His-tagged CD38, calculated from ka and kd; for kon / koff: SPR Biacore S200, NTA chip, His-tagged CD38; for kon: read-out: Ka (association rate constant); for koff: read-out: Kd (dissociation rate constant). The protocol:
SPR assay was performed using Biacore S200 (Cytiva: Former GE Healthcare).
After the equilibration of Series S Sensor Chip NTA (produced by Cytiva: Former GE Healthcare) with Running Buffer (10 mM HEPES pH7.4, 150 mM NaCl, 0.05% Tween 20), followed by injection of 350 mM EDTA at a flow rate of 10 L/min for 60 seconds and […] NiCl2 at a flow rate of 10 L/min for 60 seconds, then 3 mM EDTA at a flow rate of 10 L/min for 120 seconds, sequently, to wash the sensor chip.
EDC/NHS mixture was injected at a flow rate of […] for 7 minutes to thereby activate the functional groups on sensor chip. His-tagged CD38 in Running Buffer (10 mM HEPES pH7.4, 150 mM NaCl, 0.05% Tween 20) was injected immobilized to at a flow rate of […]. For 7 minutes to immobilize the CD38 on the substrate surfaces of the sensor chip. Then Ethanolamine was injected at a flow rate of […] for 7 minutes.
1.0 M Ethanolamine(aq.) was injected at a flow rate of 10 L/min for 420 seconds for capping. 10 mM peptides (which were synthesised described above) in DMSO were diluted to obtain 10 uM with Running Buffer, and prepared 100 nM, 50 nM, 25 nM, 10 nM, 5 nM of each peptide's solutions (Peptide Samples).
Using these Peptide Samples, kinetics of peptides against His-tagged CD38 was measured. The method adopted for sample measurement was a single-cycle kinetics method. The analysis was conducted using the evaluation software 1.1 provided with Biacore S200. A DMSO correction curve obtained by solvent correction measurements was applied for the analysis. Kinetics fitting was done on the difference data obtained by subtracting the baseline data from sample measurement data.
KD values were calculated based on the association rate constant (ka) and dissociation rate constant (kd).

`CCCCC[C@@H]1NC(=O)[C@H](CCCNC(=N)NC)NC(=O)[C@H](C)NC(=O)CSC[C@@H](C(N)=O)NC(=O)[C@H](CC(=O)O)NC(=O)[C@H](CCCCc2ccccc2)NC(=O)[C@H](Cc2ccc(-c3ccccc3)cc2)NC(=O)[C@H](CC(C)C)NC(=O)[C@H](C(C)C)NC(=O)[C@H](CCC(=O)O)NC(=O)[C@H](CC(=O)O)NC(=O)[C@H](Cc2c[nH]cn2)NC(=O)[C@H](Cc2ccc(O)cc2)NC1=O` [compound 30] ({CH2CO}-A[Arg(Me)][Ahp(2)]YHDEVL[Bip][Nle(6-Ph)]DC-NH2; thioether N-13): the Kd was 3.1 nM, the kon is 350000 M⁻¹ s⁻¹ and the koff was 0.0011 s⁻¹.
In the case of `CCCCC[C@@H]1NC(=O)[C@H](Cc2ccc(-c3ccccc3)cc2)NC(=O)[C@H](CC(C)C)NC(=O)[C@H](C(C)C)NC(=O)[C@H](CCC(=O)O)NC(=O)[C@H](CC(=O)O)NC(=O)[C@H](Cc2c[nH]cn2)NC(=O)[C@H](Cc2ccc(O)cc2)NC(=O)[C@H](CCCCC)NC(=O)[C@H](CCCNC(=N)N)NC(=O)[C@H](CCCCNC(=O)CCOCCOCCOCCOC)NC(=O)CSC[C@@H](C(N)=O)NC(=O)[C@H](CC(=O)O)NC1=O` [compound 17] ({CH2CO}-K(X1)R[Ahp(2)]YHDEVL[Bip][Ahp(2)]DC-NH2; thioether N-13), the Kd is 4.37 nM, the kon was determined as 210000 M⁻¹ s⁻¹ and the koff is 0.00091 s⁻¹.
With `CCCCC[C@@H]1NC(=O)[C@H](CCCNC(N)=O)NC(=O)[C@H](C)NC(=O)CSC[C@@H](C(N)=O)NC(=O)[C@H](CC(=O)O)NC(=O)[C@H](CCCCc2ccccc2)NC(=O)[C@H](Cc2ccc(-c3ccccc3)cc2)NC(=O)[C@H](CC(C)C)NC(=O)[C@H](C(C)C)NC(=O)[C@H](CCC(=O)O)NC(=O)[C@H](CC(=O)O)NC(=O)[C@H](Cc2c[nH]cn2)NC(=O)[C@H](Cc2ccc(O)cc2)NC1=O` [compound 28] ({CH2CO}-A[Cit][Ahp(2)]YHDEVL[Bip][Nle(6-Ph)]DC-NH2; thioether N-13), the Kd was 2.4 nM, the kon came to 680000 M⁻¹ s⁻¹ and the koff was 0.0016 s⁻¹.
Turning to `CCCCC[C@@H]1NC(=O)[C@H](CCCNC(=N)N)NC(=O)[C@H](C)NC(=O)CSC[C@@H](C(N)=O)NC(=O)[C@H](CC(=O)O)NC(=O)[C@H](CCCc2ccccc2)NC(=O)[C@H](Cc2ccc(-c3ccccc3)cc2)NC(=O)[C@H](CC(C)C)NC(=O)[C@H](C(C)C)NC(=O)[C@H](CCC(=O)O)NC(=O)[C@H](CC(=O)O)NC(=O)[C@H](Cc2c[nH]cn2)NC(=O)[C@H](Cc2ccc(O)cc2)NC1=O` [compound 26] ({CH2CO}-AR[Ahp(2)]YHDEVL[Bip][hhPhe]DC-NH2; thioether N-13), the kon was 1.9e+06 M⁻¹ s⁻¹ and the koff worked out at 0.05 s⁻¹.
For the molecule `CCCCC[C@@H]1NC(=O)[C@H](CCCNC(=N)N)NC(=O)[C@H](C)NC(=O)CSC[C@@H](C(N)=O)NC(=O)[C@H](CC(=O)O)NC(=O)[C@H](CCCCc2ccccc2)NC(=O)[C@H](Cc2ccc(-c3ccccc3)cc2)NC(=O)[C@H](CC(C)C)NC(=O)[C@H](C(C)C)NC(=O)[C@H](CCC(=O)O)NC(=O)[C@H](CC(=O)O)NC(=O)[C@H](Cc2c[nH]cn2)NC(=O)[C@H](Cc2ccc(O)cc2)NC1=O` [compound 25] ({CH2CO}-AR[Ahp(2)]YHDEVL[Bip][Nle(6-Ph)]DC-NH2; thioether N-13), the kon was determined as 630000 M⁻¹ s⁻¹ and the koff was 0.00087 s⁻¹.
Take `CCCCC[C@@H]1NC(=O)[C@H](Cc2ccc(-c3ccccc3)cc2)NC(=O)[C@H](CC(C)C)NC(=O)[C@H](C(C)C)NC(=O)[C@H](CCC(=O)O)NC(=O)[C@H](CC(=O)O)NC(=O)[C@H](Cc2c[nH]cn2)NC(=O)[C@H](Cc2ccc(O)cc2)NC(=O)[C@H](CCCCC)NC(=O)[C@H](CCCNC(=N)N)NC(=O)[C@@H](C)NC(=O)CSC[C@@H](C(N)=O)NC(=O)[C@H](CC(=O)O)NC1=O` [compound 20] ({CH2CO}-[dA]R[Ahp(2)]YHDEVL[Bip][Ahp(2)]DC-NH2; thioether N-13): the Kd was 10.6 nM, the kon came to 730000 M⁻¹ s⁻¹ and the koff is 0.0077 s⁻¹.
On to `CCCCC[C@@H]1NC(=O)[C@H](CCCNC(=N)N)NC(=O)[C@H](C)NC(=O)CSC[C@@H](C(N)=O)NC(=O)[C@H](CC(=O)O)NC(=O)[C@H](CCCCC)NC(=O)[C@H](Cc2ccc(-c3ccccc3)cc2)NC(=O)[C@H](CC(C)C)NC(=O)[C@H](C(C)C)NC(=O)[C@H](CCC(=O)O)NC(=O)[C@H](CC(=O)O)NC(=O)[C@H](Cc2c[nH]cn2)NC(=O)[C@H](Cc2ccc(O)cc2)NC1=O` [compound 10] ({CH2CO}-AR[Ahp(2)]YHDEVL[Bip][Ahp(2)]DC-NH2; thioether N-13 (inferred); N-terminus and C-terminus assumed), for which the kon is 471000 M⁻¹ s⁻¹ and the koff amounted to 0.00223 s⁻¹.
Take `CCCCC[C@@H]1NC(=O)[C@H](CCCNC(=N)N)NC(=O)[C@H](C)NC(=O)CSC[C@@H](C(N)=O)NC(=O)[C@H](CC(=O)O)NC(=O)[C@H](CCCCC)NC(=O)[C@H](Cc2ccc(-c3ccccc3)cc2)NC(=O)[C@H](CCS(C)(=O)=O)NC(=O)[C@H](C(C)C)NC(=O)CNC(=O)[C@H](CC(=O)O)NC(=O)[C@H](Cc2c[nH]cn2)NC(=O)[C@H](Cc2ccc(O)cc2)NC1=O` [compound 9] ({CH2CO}-AR[Ahp(2)]YHDGV[Met(O2)][Bip][Ahp(2)]DC-NH2; thioether N-13 (inferred); N-terminus and C-terminus assumed): the kon amounted to 664000 M⁻¹ s⁻¹ and the koff stood at 0.00627 s⁻¹.
The matching figures for `CCCCCCC[C@@H]1NC(=O)[C@H](Cc2ccc(-c3ccccc3)cc2)NC(=O)[C@H](CC(C)C)NC(=O)[C@H](C(C)C)NC(=O)[C@H](CCC(=O)O)NC(=O)[C@H](CC(=O)O)NC(=O)[C@H](Cc2c[nH]cn2)NC(=O)[C@H](Cc2ccc(O)cc2)NC(=O)[C@H](CCCCC)NC(=O)[C@H](CCCNC(=N)N)NC(=O)[C@H](C)NC(=O)CSC[C@@H](C(N)=O)NC(=O)[C@H](CC(=O)O)NC1=O` [compound 23] ({CH2CO}-AR[Ahp(2)]YHDEVL[Bip][X4]DC-NH2; thioether N-13): 820000 M⁻¹ s⁻¹ and 0.0027 s⁻¹.
Take `CCCCC[C@@H]1NC(=O)[C@H](CCCNC(=N)N)NC(=O)[C@H](C)NC(=O)CSC[C@@H](C(N)=O)NC(=O)[C@H](CC(=O)O)NC(=O)[C@H](CCCCC)NC(=O)[C@H](Cc2ccc(-c3ccccc3)cc2)NC(=O)[C@H]([C@@H](C)O)NC(=O)[C@H](C(C)C)NC(=O)CNC(=O)[C@H](CC(=O)O)NC(=O)[C@H](Cc2c[nH]cn2)NC(=O)[C@H](Cc2ccc(O)cc2)NC1=O` [compound 7] ({CH2CO}-AR[Ahp(2)]YHDGVT[Bip][Ahp(2)]DC-NH2; thioether N-13): the kon was determined as 819000 M⁻¹ s⁻¹ and the koff is 0.0535 s⁻¹.
The matching figures for `CCCCC[C@@H]1NC(=O)[C@H](CCCNC(=N)N)NC(=O)[C@H](C)NC(=O)CSC[C@@H](C(N)=O)NC(=O)[C@H](CC(=O)O)NC(=O)[C@H](CCCCC)NC(=O)[C@H](Cc2ccc(-c3ccccc3)cc2)NC(=O)[C@H](CCS(C)(=O)=O)NC(=O)[C@H](C(C)C)NC(=O)[C@H](CCC(N)=O)NC(=O)[C@H](CC(=O)O)NC(=O)[C@H](Cc2c[nH]cn2)NC(=O)[C@H](Cc2ccc(O)cc2)NC1=O` [compound 13] ({CH2CO}-AR[Ahp(2)]YHDQV[Met(O2)][Bip][Ahp(2)]DC-NH2; thioether N-13): 1.1e+06 M⁻¹ s⁻¹ and 0.024 s⁻¹.
In the case of `CCCCC[C@@H]1NC(=O)[C@H](CCCCNC(=O)CCOCCOCCOCCOC)NC(=O)[C@H](C)NC(=O)CSC[C@@H](C(N)=O)NC(=O)[C@H](CC(=O)O)NC(=O)[C@H](CCCCC)NC(=O)[C@H](Cc2ccc(-c3ccccc3)cc2)NC(=O)[C@H](CC(C)C)NC(=O)[C@H](C(C)C)NC(=O)[C@H](CCC(=O)O)NC(=O)[C@H](CC(=O)O)NC(=O)[C@H](Cc2c[nH]cn2)NC(=O)[C@H](Cc2ccc(O)cc2)NC1=O` [compound 18] ({CH2CO}-AK(X1)[Ahp(2)]YHDEVL[Bip][Ahp(2)]DC-NH2; thioether N-13), the Kd was 27.7 nM, the kon was determined as 220000 M⁻¹ s⁻¹ and the koff is 0.006 s⁻¹.
For `CCCCC[C@@H]1NC(=O)[C@H](CCCNC(=N)N)NC(=O)[C@H](C)NC(=O)CSC[C@@H](C(N)=O)NC(=O)[C@H](CC(=O)O)NC(=O)[C@H](CCCCC)NC(=O)[C@H](Cc2ccc(-c3ccccc3)cc2)NC(=O)[C@H](CC(C)C)NC(=O)[C@H](C(C)C)NC(=O)[C@H](CCC(=O)O)NC(=O)[C@H](CC(=O)O)NC(=O)[C@H](Cc2c[nH]c3cnccc23)NC(=O)[C@H](Cc2ccc(O)cc2)NC1=O` [compound 22] ({CH2CO}-AR[Ahp(2)]Y[Trp(6-aza)]DEVL[Bip][Ahp(2)]DC-NH2; thioether N-13) the same measures were 10.9 nM, 790000 M⁻¹ s⁻¹ and 0.0087 s⁻¹.
